Assay results from the supplement of paper PMC10307832.

Columns and labels:
Experiment in all cases: relative viability (nuclei count vs DMSO), 5 days (fraction); higher = more cells survive
Obatoclax + Tozasertib = compound: COC1=CC(c2cc3ccccc3[nH]2)=N/C1=C\c1[nH]c(C)cc1C [Obatoclax] + Cc1cc(Nc2cc(N3CCN(C)CC3)nc(Sc3ccc(NC(=O)C4CC4)cc3)n2)n[nH]1 [Tozasertib] (partner 0.1 µM)
How it was run: (§1)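 Lung cancer cell lines, seeded in 1536-well plates, were treated the following day by pin tool with a single drug or with five library-drug doses (not always all listed) in √10 steps on top of a fixed anchor-drug dose. Cells were fixed and nuclei stained in one step after 5 days, and nuclei were counted. Relative viability is the nuclei count for treated wells divided by that for vehicle wells, reported as medians of duplicate plates.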

[1] = compound: CC1=CC(=NN1)NC2=CC(=NC(=N2)/C=C/C3=CC=CC=C3)N4CCN(CC4)C + CC(=O)Nc1cccc(-n2c(=O)n(C3CC3)c(=O)c3c(Nc4ccc(I)cc4F)n(C)c(=O)c(C)c32)c1 [Trametinib] (partner 0.02 µM)
How it was run: as §1

Obatoclax + Pictilisib = compound: COC1=CC(c2cc3ccccc3[nH]2)=N/C1=C\c1[nH]c(C)cc1C [Obatoclax] + CS(=O)(=O)N1CCN(Cc2cc3nc(-c4cccc5[nH]ncc45)nc(N4CCOCC4)c3s2)CC1 [Pictilisib] (partner 1 µM)
How it was run: as §1

| Cell Line | relative viability (Obatoclax + Tozasertib; first compound 0.01 µM) | relative viability (Obatoclax + Tozasertib; first compound 0.03162 µM) | relative viability (Obatoclax + Tozasertib; first compound 0.1 µM) | relative viability (Obatoclax + Tozasertib; first compound 0.3162 µM) | relative viability (Obatoclax + Tozasertib; first compound 1 µM) | relative viability ([1]; first compound 0.08 µM) | relative viability ([1]; first compound 0.253 µM) | relative viability ([1]; first compound 0.8 µM) | relative viability ([1]; first compound 2.53 µM) | relative viability ([1]; first compound 8 µM) | relative viability (Obatoclax + Pictilisib; first compound 0.01 µM) | relative viability (Obatoclax + Pictilisib; first compound 0.03162 µM) | relative viability (Obatoclax + Pictilisib; first compound 0.1 µM) | relative viability (Obatoclax + Pictilisib; first compound 0.3162 µM) | relative viability (Obatoclax + Pictilisib; first compound 1 µM) |
| --- | --- | --- | --- | --- | --- | --- | --- | --- | --- | --- | --- | --- | --- | --- | --- |
| NCI-H1395 | 0.674 | 0.609 | 0.64 | 0.769 | 0.547 | 0.964 | 1.03 | 0.975 | 0.659 | 0.263 | 0.815 | 0.488 | 0.485 | 0.811 | 0.519 |
| NCI-H1437 | 0.414 | 0.439 | 0.437 | 0.457 | 0.521 | 0.532 | 0.621 | 0.577 | 0.272 | 0.223 | 0.374 | 0.436 | 0.495 | 0.452 | 0.378 |
| NCI-H1650 | 0.417 | 0.358 | 0.425 | 0.275 | 0.266 | 0.547 | 0.566 | 0.651 | 0.197 | 0.0762 | 0.572 | 0.749 | 0.571 | 0.412 | 0.315 |
| NCI-H1651 | 0.796 | 0.752 | 0.737 | 0.552 | 0.468 | 0.801 | 0.83 | 0.832 | 0.758 | 0.395 | 0.58 | 0.567 | 0.634 | 0.256 | 0.188 |
| NCI-H1666 | 0.634 | 0.739 | 0.694 | 0.367 | 0.398 | 0.834 | 0.761 | 0.875 | 0.854 | 0.563 | 0.398 | 0.531 | 0.479 | 0.188 | 0.196 |
| NCI-H1734 | 0.296 | 0.264 | 0.265 | 0.236 | 0.226 | 0.628 | 0.601 | 0.56 | 0.41 | 0.121 | 0.466 | 0.457 | – | 0.361 | 0.229 |
| NCI-H1755 | 0.542 | 0.537 | 0.574 | 0.574 | 0.515 | 0.78 | 0.728 | 0.716 | 0.66 | 0.389 | 0.475 | 0.383 | 0.386 | 0.357 | 0.269 |
| NCI-H1793 | 0.309 | 0.393 | 0.406 | 0.324 | 0.297 | 0.405 | 0.402 | 0.356 | 0.167 | 0.119 | 0.288 | 0.306 | 0.388 | 0.297 | 0.296 |
| NCI-H1915 | 0.401 | 0.405 | 0.424 | 0.382 | 0.414 | 0.299 | 0.181 | 0.285 | 0.21 | 0.106 | 0.967 | 0.823 | 0.968 | 0.989 | 0.933 |
| NCI-H1944 | 0.258 | 0.254 | 0.287 | 0.263 | 0.24 | 0.433 | 0.429 | 0.37 | 0.318 | 0.239 | 0.34 | 0.332 | 0.337 | 0.295 | 0.336 |
| NCI-H1975 | 0.706 | 0.837 | – | 0.658 | 0.131 | 0.343 | 0.333 | 0.4 | 0.254 | 0.105 | 0.299 | 0.313 | 0.258 | 0.292 | 0.199 |
| NCI-H1993 | 0.594 | 0.637 | 0.618 | 0.604 | 0.624 | 0.506 | 0.541 | 0.408 | 0.616 | 0.509 | 0.804 | 0.833 | 0.842 | 1.02 | 0.733 |
| NCI-H2009 | 0.771 | 0.824 | 0.703 | 0.291 | 0.255 | 0.309 | 0.22 | 0.215 | 0.139 | 0.0702 | 0.927 | 0.936 | 0.706 | 0.281 | 0.228 |
| NCI-H2023 | 0.365 | 0.354 | 0.297 | 0.145 | 0.151 | 0.522 | 0.649 | 0.449 | 0.0864 | 0.0663 | 0.29 | 0.22 | 0.265 | 0.151 | 0.0879 |
| NCI-H2085 | 0.751 | 0.826 | 0.895 | 0.776 | 0.645 | 0.594 | 0.48 | 0.535 | 0.261 | 0.214 | 0.446 | 0.433 | 0.483 | 0.338 | 0.242 |
| NCI-H2087 | 0.248 | 0.239 | 0.229 | 0.206 | 0.161 | 0.155 | 0.18 | 0.151 | 0.072 | 0.0577 | 0.908 | 0.925 | 0.825 | 0.334 | 0.206 |
| NCI-H2126 | 0.908 | 0.827 | 0.87 | 0.832 | 0.819 | 0.57 | 0.534 | 0.555 | 0.516 | 0.346 | 0.524 | 0.464 | 0.554 | 0.481 | 0.482 |
| NCI-H2170 | 0.759 | 0.758 | 0.718 | 0.715 | 0.753 | 0.932 | 0.916 | 0.91 | 0.671 | 0.355 | 0.369 | 0.278 | 0.316 | 0.334 | 0.295 |
| NCI-H2228 | 0.278 | 0.318 | 0.29 | 0.257 | 0.21 | 0.518 | 0.22 | 0.637 | 0.106 | 0.0612 | 0.278 | 0.419 | 0.384 | 0.294 | 0.174 |
| NCI-H2347 | 0.504 | 0.684 | – | 0.549 | 0.423 | 0.291 | 0.231 | 0.264 | 0.291 | 0.216 | 0.904 | 0.648 | 0.695 | 0.489 | 0.831 |
| NCI-H2405 | 0.789 | 0.905 | – | 0.833 | 0.882 | 0.63 | 0.397 | 0.685 | 0.519 | 0.147 | 0.508 | 0.461 | – | 0.497 | 0.392 |
| NCI-H3122 | 0.389 | 0.361 | 0.382 | 0.373 | 0.391 | 0.201 | 0.167 | 0.293 | 0.334 | 0.257 | 0.575 | 0.634 | 0.767 | 0.615 | 0.497 |
| PC-3 [JPC-3] | 0.913 | 0.85 | 0.87 | 0.81 | 0.859 | 0.726 | 0.744 | 0.701 | 0.706 | 0.417 | 0.794 | 0.676 | 0.819 | 0.685 | 0.834 |
| PC-14 | 0.553 | 0.562 | 0.473 | 0.535 | 0.348 | 0.85 | 0.805 | 0.835 | 0.0586 | 0.038 | 0.712 | 0.622 | 0.681 | 0.716 | 0.324 |
| RERF-LC-KJ | 0.444 | 0.536 | 0.487 | 0.493 | 0.281 | 0.905 | 0.956 | 0.928 | 0.605 | 0.295 | 0.543 | 0.587 | 0.538 | 0.513 | 0.334 |
| SK-LU-1 | 0.346 | 0.354 | 0.342 | 0.184 | 0.154 | 0.502 | 0.266 | 0.555 | 0.229 | 0.129 | 0.616 | 0.559 | 0.46 | 0.364 | 0.256 |
| SK-MES-1 | 0.859 | 0.999 | 0.787 | 0.344 | 0.285 | 0.549 | 0.646 | 0.595 | 0.245 | 0.137 | 0.393 | 0.379 | 0.392 | 0.402 | 0.268 |
| SW 1573 | 0.222 | 0.208 | 0.145 | 0.143 | 0.129 | 0.542 | 0.636 | 0.521 | 0.12 | 0.0764 | 0.466 | 0.539 | 0.506 | 0.44 | 0.519 |
| UMC-11 | 0.202 | 0.197 | 0.234 | 0.249 | 0.22 | 0.682 | 0.681 | 0.503 | 0.162 | 0.101 | 0.849 | 0.819 | 0.806 | 0.645 | 0.298 |
